The numbers were not newly measured in patent US5717095A, “Nucleotide analogs” (Gilead Sciences, Inc., priority 1996, dated 1998), which cites them from elsewhere.

Each structure is given as a SMILES string. “Also recorded” adds a separate entry of the source.

The subject of series [1] is retroviruses such as murine sarcoma virus (MSV). Particulars: cited from earlier work.
The next series has as its system adenovirus. Particulars: cited from earlier work.
Series [2] deals with African swine fever (ASF) virus. Particulars: cited from earlier work.
The test system of series [3] is herpes simplex virus, type 1 or 2 (HSV-1 and -2). Particulars: cited from earlier work.
Series [4] deals with equid herpesvirus type 1 (equine abortion virus, EHV-1). The conditions noted are these: cited from earlier work.
Series [5] concerns thymidine kinase-deficient (TK^-) mutants of herpes simplex virus. The conditions noted are these: TK^- HSV mutants; cited from earlier work.
Series [6] deals with simian herpesvirus type 1 (SHV-1), or pseudorabies virus or Aujeszky's disease virus. The conditions noted are these: SHV-1 / pseudorabies virus; cited from earlier work.
Series [7] relates to bovid herpesvirus type 1 (infectious bovine rhinotracheitis virus, BHV-1). Particulars: cited from earlier work.
The subject of another series is HCMV. Particulars: cited from earlier work.
The subject of a further series is vaccinia virus. Particulars: cited from earlier work.
Series [8] relates to varicella zoster virus (VZV). Particulars: cited from earlier work.
In series [9] the test system is herpes simplex virus type 1. Particulars: mice and rabbits, local and systemic HSV-1 infections, including herpetic keratitis caused by acyclovir-type-drug-resistant TK^- mutant; cited from earlier work.
For series [10], the system named is phocid herpesvirus type 1 (seal herpesvirus, SeHV). Particulars: cited from earlier work.
Series [11] concerns intraperitoneal P388 leukemia. The conditions noted are these: murine; cited from earlier work.

Regarding `Nc1ncnc2c1ncn2C[C@@H](CO)OCP(=O)(O)O` [(S)-HPMPA], the antiviral activity entry in series [1] is “potent and selective activity”; with adenovirus, “active; also recorded: potent and selective activity”; in series [2] it was “potent and selective activity”; in series [3], “active; also recorded: potent and selective activity”; in series [4], “potent and selective activity”; in series [5], “potent and selective activity”. The antiviral activity entry was “potent and selective activity” in series [6]; “potent and selective activity” in [7]; “potent and selective activity” in the series on HCMV; “active; also recorded: potent and selective activity” in the series with vaccinia virus; “active; also recorded: potent and selective activity” in series [8]; “potent and selective activity” in series [10]. For the same molecule, the “in vivo antiviral effect” value in series [9] is “effective”.

For the molecule `Nc1ncnc2c1ncn2CC(CO)OCP(=O)(O)O` (centres unmarked) [HPMPA], in series [11], the antitumor activity entry is listed as “active”.
